Test results published in patent US20040052837A1, “Lipid conjugated anti-cancer drugs and methods of use thereof” (priority 2002, published 2004).
Where two headings read alike, the source gives them in different places.

Assays:
T27A cells = experiment: Inhibition of T27A cell proliferation by [3H]thymidine incorporation; assay type: cell-based, murine
Method: The murine non-T non-B leukemia cell line T27A (ATCC, Rockville, Md., USA) was cultured in RPMI 1640 medium (Gibco/BRI, Gaithersburg, Md.) supplemented with 25 mM HEPES buffer, 2 mM glutamine, 100 U penicillin/ml, 100 μg streptomycin/ ml and 2 or 10% bovine calf serum (Hyclone, Logan, Utah) in a humidified 5% CO2 atmosphere. Cell viability was determined by Trypan blue exclusion.
DHA (NuChek Prep, Elysan, Minn.) was introduced into RPMI 1640 medium supplemented with 1% (w/v) fatty acid-free bovine serum albumin (Sigma) as described by Spector and Hoak (33) with modifications we have reported (34).
Liposomes were prepared fresh for each use. The bulk of the lipids was 18:0, 18:1 PC (up to 90 mol %), with 10 mol % 18:0, 18:1 PE added to augment fusion between liposomes and the cell-surface membrane. The control contained no additional lipids; the experimental groups contained up to an additional 15 mol % 18:0, 22:6 PC or up to 0.43 mol % 18:0, MTX-PC or 22:6, MTX-PC. The solvent was evaporated under nitrogen and the lipids dried under vacuum for 2 h. The lipids were rehydrated in RPMI medium, and multilamellar vesicles were prepared by vortexing 1 ml of lipids at a concentration of 2 mg/ml. Liposomes (small unilamellar vesicles) were created by sonicating the multilamellar vesicles for 15 min on ice under nitrogen with a Heat Systems W380 disruptor (Farmingdale, N.Y.) set at 1 s cycle time, 60% duty and 3-7% output. Liposome suspensions were centrifuged at low speed (3700 r.p.m.; 2300 g) to remove particulate material and sterile filtered through a 0.2-μm filter. An aliquot of each liposome preparation was tested by thin-layer chromatography to assure that hydrolysis had not occurred.
All concentrations given are final concentrations in the wells. […] Control liposomes were made from 1 mM 18:0, 18:1 PC/ 18:0, 18:1 PE (9/1, mol:mol). After 6 h of incubation, 0.5 μCi/well of [^3H]thymidine (2 Ci/mmol; Amersham, Arlington Heights, Ill.) was added and the incubation continued for an additional 18 h. Cells were then harvested onto glass fiber filters (PHD Cell Harvester; Cambridge Technology, Watertown, Mass.) and the radioactivity present in DNA on the filters was measured by liquid scintillation counting.
The IC50 for each agent alone was determined by non-linear curve fitting with the software package SigmaPlot (SPSS, Chicago, Ill.).

[1] = previous study (26); cited from earlier work
human neoplastic cells = details: (1); cited from earlier work
[2] = (35); cited from earlier work
[3] = tested on: several different cell types; details: variety of assays in vitro (11, 37-39); cited from earlier work
[4] = lipid included in liposomes of 1 mM 18:0,18:1 PC/18:0,18:1 PE (9:1), 24 h, read-out: IC50, inhibition of proliferation

Which IC50 (T27A cells; [4]) does the source give for `CCCCCCCCCCCCCCCCCC(=O)OC[C@H](COP(=O)([O-])OCC[N+](C)(C)C)OC(=O)CC[C@H](NC(=O)c1ccc(N(C)Cc2cnc3nc(N)nc(N)c3n2)cc1)C(=O)O` [18:0, MTXγ-PC] here?
Its IC50 is 2.11 µM.

With `CC/C=C\C/C=C\C/C=C\C/C=C\C/C=C\C/C=C\CCC(=O)OC[C@H](COP(=O)([O-])OCC[N+](C)(C)C)OC(=O)CC/C=C\C/C=C\C/C=C\C/C=C\C/C=C\C/C=C\CC` [22:6, 22:6 PC, 1,2-didocosahexaenoyl-sn-glycero-3-phosphocholine] as the compound, how does the direct cytotoxicity [1] read?
The direct cytotoxicity was “comparable to 18:0, 22:6 PC”.

With `CC/C=C\C/C=C\C/C=C\C/C=C\C/C=C\C/C=C\CCC(=O)OC[C@H](COP(=O)([O-])OCC[N+](C)(C)C)OC(=O)CC[C@H](NC(=O)c1ccc(N(C)Cc2cnc3nc(N)nc(N)c3n2)cc1)C(=O)O` [22:6, MTXγ-PC] as the compound, how does the IC50 (T27A cells; [4]) read?
Its IC50 is 1.19 µM.

What about the “potency as inhibitor of cell proliferation relative to 18:0, MTXγ-PC” value (T27A cells; liposomes with up to 0.43 mol % (4.2 μM) MTXγ-PC, 24 h) of the same compound?
Its value is “more potent inhibitor of cell proliferation than 18:0, MTXγ-PC”.

What about the “inhibition relative to 18:0, MTXγ-PC” value (T27A cells; low concentrations, below 1.5 μM, in liposomes) of the same compound?
The value was “significantly more inhibitory than 18:0, MTXγ-PC”.

For `CC/C=C\C/C=C\C/C=C\C/C=C\C/C=C\C/C=C\CCC(=O)O` [DHA, docosahexaenoic acid], which “% of maximal proliferation” value (T27A cells; 220 μM DHA alone) is on record?
Its value is 57%.

And the predicted % inhibition at 25 µM (T27A cells; Mus musculus, [DHA] 25 μM)?
The predicted % inhibition at 25 µM was 4.9%.

What about the predicted % inhibition at 50 µM (T27A cells; Mus musculus, [DHA] 50 μM) of the same compound?
The predicted % inhibition at 50 µM was 9.8%.

What about the predicted % inhibition at 100 µM (T27A cells; Mus musculus, [DHA] 100 μM) of the same compound?
The predicted % inhibition at 100 µM was 19.7%.

And the predicted % inhibition at 150 µM (T27A cells; Mus musculus, [DHA] 150 μM)?
Its predicted % inhibition at 150 µM is 29.5%.

And the predicted % inhibition at 200 µM (T27A cells; Mus musculus, [DHA] 200 μM)?
The predicted % inhibition at 200 µM was 39.3%.

And the IC50 (T27A cells; Mus musculus, albumin-bound DHA not conjugated to phospholipids, 24 h, 2% serum, read-out: IC50, inhibition of [3H]thymidine incorporation)?
Its IC50 is 211 µM.

And the “IC50 with albumin delivery relative to IC50 for DHA delivered in ethanol” value (T27A cells; albumin versus ethanol delivery)?
The value was “about 5 times”.

Which “level at which toxic” value (human neoplastic cells) does the source give for `CN(Cc1cnc2nc(N)nc(N)c2n1)c1ccc(C(=O)N[C@@H](CCC(=O)O)C(=O)O)cc1` [MTX, methotrexate] here?
The value was 20 nM.

What about the “pKa of α-carboxyl group” value [2] of the same compound?
Its value is 3.35.

What about the “range of inhibitory doses reported” value [3] of the same compound?
Its value is 15 to 240 nM.

And the “% of maximal proliferation” value (T27A cells; 30 nM MTX alone)?
The value was 52%.

And the IC50 (T27A cells; Mus musculus, 24 h, read-out: IC50 (dose for 50% inhibition of proliferation))?
Its IC50 is 0.0306 µM.

What about the “Inhibition (Predicted; %)” value (T27A cells; [MTX] 2.7 nm) of the same compound?
Its value is 4.3%.

And the “Inhibition (Predicted; %)” value (T27A cells; [MTX] 9.5 nm)?
The value was 15.2%.

What about the “Inhibition (Predicted; %)” value (T27A cells; [MTX] 16.5 nm) of the same compound?
The value was 26.3%.

What about the “Inhibition (Predicted; %)” value (T27A cells; [MTX] 23.3 nm) of the same compound?
The value was 37.2%.

What about the “Inhibition (Predicted; %)” value (T27A cells; [MTX] 26.7 nm) of the same compound?
Its value is 42.6%.
